Entries after “also recorded” stand apart in the source; their conditions may differ.
Assays:
SARS-CoV-2 3CL^pro [1] = target: T1, SARS-CoV-2 3CL^pro (Severe acute respiratory syndrome coronavirus 2, UniProt P0DTD1); assay: SARS-CoV-2 3CLpro enzymatic inhibition assay (FRET peptide substrate); format: biochemical
SARS-CoV-2 3CL^pro [2] = target: T1, SARS-CoV-2 3CL^pro; assay: Kinetic parameters of 3CLpro reaction with inhibitor; format: biochemical; conditions: maximum reaction rate of 3CLpro with inhibitor at its IC50

| Compound | IC50 (SARS-CoV-2 3CL^pro [1]) [µM] | activity against 3CLpro (in words) (SARS-CoV-2 3CL^pro [1]) | Vmax (SARS-CoV-2 3CL^pro [2]) [nM/s] |
| --- | --- | --- | --- |
| CC(=O)C1=C(O)C=C2Oc3c(-c4csc(N/N=C/c5ccc(C)s5)n4)c(O)c(C)c(O)c3[C@@]2(C)C1=O [(+)-3d] | 40.7 ± 5.11 | moderately inhibited the protease |  |
| CC(=O)C1=C(O)C=C2Oc3c(-c4csc(N/N=C/c5sccc5C)n4)c(O)c(C)c(O)c3[C@@]2(C)C1=O [(+)-3c] | 34 ± 4.45 |  |  |
| CC(=O)C1=C(O)C=C2Oc3c(-c4csc(N/N=C/c5ccc(Br)s5)n4)c(O)c(C)c(O)c3[C@]2(C)C1=O [(−)-3e] | 85.8 ± 10.1 | almost three times less effectively |  |
| CC(=O)C1=C(O)C=C2Oc3c(-c4csc(N/N=C/c5cc(Br)cs5)n4)c(O)c(C)c(O)c3[C@@]2(C)C1=O [(+)-3f] | 50.2 ± 6.75 |  |  |
| CC(=O)C1=C(O)C=C2Oc3c(-c4csc(N/N=C/c5ccc([N+](=O)[O-])s5)n4)c(O)c(C)c(O)c3[C@@]2(C)C1=O [(+)-3g] | > 200 | showed no activity at all; also recorded: did not show this activity |  |
| CC(=O)C1=C(O)C=C2Oc3c(-c4csc(N/N=C/c5cccs5)n4)c(O)c(C)c(O)c3[C@]2(C)C1=O [(−)-3b] | 40.4 ± 5.65 |  |  |
| CC(=O)C1=C(O)C=C2Oc3c(-c4csc(N/N=C/c5cc(Br)cs5)n4)c(O)c(C)c(O)c3[C@]2(C)C1=O [(−)-3f] | 72.8 ± 9.55 |  |  |
| CC(=O)C1=C(O)C=C2Oc3c(-c4csc(N/N=C/c5ccc(Br)s5)n4)c(O)c(C)c(O)c3[C@@]2(C)C1=O [(+)-3e] | 28.2 ± 1.41 | the highest but not strong activity | 334.26 ± 39.08 |
| CC(=O)C1=C(O)C=C2Oc3c(-c4csc(N/N=C/c5ccc(C)s5)n4)c(O)c(C)c(O)c3[C@]2(C)C1=O [(−)-3d] | 41 ± 5.89 | moderately inhibited the protease |  |
| CC(=O)C1=C(O)C=C2Oc3c(-c4csc(N/N=C/c5sccc5C)n4)c(O)c(C)c(O)c3[C@]2(C)C1=O [(−)-3c] | 48 ± 6.21 |  |  |
| CC(=O)C1=C(O)C=C2Oc3c(-c4csc(N/N=C/c5ccsc5)n4)c(O)c(C)c(O)c3[C@]2(C)C1=O [(−)-3a] | 41.6 ± 4.97 |  |  |
| CC(=O)C1=C(O)C=C2Oc3c(-c4csc(N/N=C/c5ccc([N+](=O)[O-])s5)n4)c(O)c(C)c(O)c3[C@]2(C)C1=O [(−)-3g] | > 200 | showed no activity at all |  |
| CC(=O)C1=C(O)C=C2Oc3c(-c4csc(N/N=C/c5cccs5)n4)c(O)c(C)c(O)c3[C@@]2(C)C1=O [(+)-3b] | 49.7 ± 6.12 |  |  |
| CC(=O)C1=C(O)C=C2Oc3c(-c4csc(N/N=C/c5ccsc5)n4)c(O)c(C)c(O)c3[C@@]2(C)C1=O [(+)-3a] | 51 ± 6.33 |  |  |
| CC(=O)C1=C(O)C=C2Oc3c(C(C)=O)c(O)c(C)c(O)c3[C@@]2(C)C1=O [(+)-1, (R)-(+)-Usnic acid, reference compound] | > 200 | does not inhibit 3CL^pro |  |
| CC(=O)C1=C(O)C=C2Oc3c(C(C)=O)c(O)c(C)c(O)c3[C@]2(C)C1=O [(−)-1, (S)-(−)-Usnic acid, reference compound] | > 200 |  |  |
